Like-named read-outs stand apart in the source and are kept apart here. Where only a bound is given, the exact number is not on record here.

A word on the IC50: it is the concentration that gives 50% inhibition.

Assay [1] deals with H3K18Ac in HB-CLS-2 cells. The assay can be described thus: H3K18AC in-cell western (ICW) assay. It is filed as cell-based. As to conditions: H3K18Ac in-cell western, read-out: CREBBP ICW IC50. In outline:
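HB-CLS-2 cells seeded 16–24 hours before 2 hr compound treatment at 37° C, 5% CO2, then methanol-fixed. H3K18Ac detected with rabbit monoclonal primary (overnight, 4° C) and 800CW anti-rabbit secondary; DRAQ5 stained DNA. Plates imaged at 700 and 800 nm for integrated intensity; IC50 in μM.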

A further assay addresses T1, CREBBP (1084-1701) (Homo sapiens, UniProt Q92793).
T1 construct: measured in the following biochemical assay using CREBBP (1084-1701); purchased
Nature of the assay: Biochemical assay for CREBBP (1084-1701), SAMDI. Conditions: SAMDI, read-out: CREBBP Biochemistry IC50. In outline:
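CREBBP (1084-1701) preincubated with compound 30 min at RT, then substrate mix (biotin-H3 11-25 K14R/K23R peptide, acetyl-CoA) added for 30 min at RT. Reaction stopped with formic acid, neutralised with sodium bicarbonate. Peptide acetylation read by SAMDI mass spectrometry to derive IC50.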

The next assay has as its system 647V cells. Nature of the assay: High throughput proliferation (HTP) assay. It is filed as cell-based. As to conditions: high throughput proliferation, read-out: CREBBP HTP IC50. In outline: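 Exponentially growing 647V cells in DMEM with 15% FBS were treated in triplicate with increasing compound concentrations at 37° C, 5% CO2. Viable cell number was read by CellTiter-Glo luminescence on day 7; IC50 in micromolar.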

In the next assay the target is T2, EP300 (P300(1048-1664)) (Homo sapiens, UniProt Q09472).
T2 construct: P300(1048-1664)
T2 sequence (Q09472 1048-1664): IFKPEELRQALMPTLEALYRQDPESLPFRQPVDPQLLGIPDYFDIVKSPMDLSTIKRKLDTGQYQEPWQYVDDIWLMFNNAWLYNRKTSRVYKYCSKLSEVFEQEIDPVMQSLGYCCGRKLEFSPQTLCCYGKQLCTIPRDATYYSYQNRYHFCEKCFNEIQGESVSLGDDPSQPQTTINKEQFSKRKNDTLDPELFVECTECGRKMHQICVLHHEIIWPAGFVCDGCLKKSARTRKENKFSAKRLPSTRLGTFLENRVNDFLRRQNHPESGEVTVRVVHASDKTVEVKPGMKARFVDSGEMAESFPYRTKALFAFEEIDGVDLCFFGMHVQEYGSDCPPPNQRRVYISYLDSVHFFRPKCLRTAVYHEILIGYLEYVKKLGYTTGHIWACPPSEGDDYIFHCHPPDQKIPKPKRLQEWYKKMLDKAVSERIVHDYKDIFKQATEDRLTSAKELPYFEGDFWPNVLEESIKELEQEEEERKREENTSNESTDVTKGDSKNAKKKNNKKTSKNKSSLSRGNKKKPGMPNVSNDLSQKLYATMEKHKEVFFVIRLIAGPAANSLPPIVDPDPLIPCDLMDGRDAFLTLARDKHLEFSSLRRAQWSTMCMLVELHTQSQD
The assay can be described thus: Biochemical assay for EP300, SAMDI. Conditions: EP300, SAMDI; read-out: EP300 Biochemistry IC50. The text has this:
The following example describes materials and methods relating to a biochemical assay for EP300. IC50 values (micromolar (μM)) are summarized in Table 1, Table 2, and Table 3 under the column labeled: “EP300 Biochemistry IC50 (micromolar).”

Setting [2] is: Homo sapiens, 647-V, 647V cells.

T1 sequence (Q92793 1084-1701): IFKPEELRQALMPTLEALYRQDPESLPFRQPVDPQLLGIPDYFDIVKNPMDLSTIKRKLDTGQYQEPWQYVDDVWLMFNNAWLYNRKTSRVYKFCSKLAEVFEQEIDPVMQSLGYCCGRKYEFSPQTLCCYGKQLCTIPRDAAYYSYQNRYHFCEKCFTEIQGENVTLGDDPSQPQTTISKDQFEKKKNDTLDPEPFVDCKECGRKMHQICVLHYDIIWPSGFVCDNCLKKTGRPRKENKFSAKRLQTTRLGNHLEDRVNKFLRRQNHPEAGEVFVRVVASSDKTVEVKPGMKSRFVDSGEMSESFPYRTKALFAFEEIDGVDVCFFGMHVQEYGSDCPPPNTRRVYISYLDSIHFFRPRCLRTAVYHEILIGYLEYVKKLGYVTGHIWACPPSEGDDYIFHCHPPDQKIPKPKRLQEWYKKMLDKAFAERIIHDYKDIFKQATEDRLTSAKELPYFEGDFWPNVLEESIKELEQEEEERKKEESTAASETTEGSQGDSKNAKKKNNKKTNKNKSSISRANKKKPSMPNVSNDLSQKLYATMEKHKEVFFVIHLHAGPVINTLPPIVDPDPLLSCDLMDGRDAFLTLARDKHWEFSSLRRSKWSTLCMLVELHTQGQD

Take `CCn1ncc(CN(C)C(=O)c2nc(-c3cc(C#N)n(C)n3)nc3ccc(Cl)cc23)c1C` [Compound 406]: the IC50 in assay [1] (HB-CLS-2 cells) was 20000 nM; at CREBBP (1084-1701) it was 50000 nM; with 647V cells (setting [2]), 20000 nM; at EP300 (P300(1048-1664)) it was 50000 nM.
For the molecule `CCn1ncc(CN(C)C(=O)c2cc(-c3ccc(OCCNC)c(Cl)c3)nc3ccc(P(C)(C)=O)cc23)c1C` [Compound 407], the IC50 turned out to be 18000 nM in assay [1] (HB-CLS-2 cells), 2100 nM on CREBBP (1084-1701), 7400 nM in the assay with 647V cells (647V cells) and 700 nM at EP300 (P300(1048-1664)).
For `CCn1ncc(CN(C)C(=O)c2nc(-c3cc(C)cc(NCC(=O)NC)c3)nc3ccc(Cl)cc23)c1C` [Compound 408], the IC50 worked out at 1100 nM in assay [1] (HB-CLS-2 cells), 430 nM on CREBBP (1084-1701), 890 nM in the assay with 647V cells (setting [2]) and 950 nM at EP300 (P300(1048-1664)).
The like results for `CCn1ncc(CN(C)C(=O)c2cc(-c3cc(NCCNC)cc(C)n3)nc3ccc(Cl)cc23)c1C` [Compound 409] were, in that order, 230 nM, 74 nM, 54 nM and 23 nM.
The like results for `CCn1ncc(CN(C)C(=O)c2cc(-c3cc(C)c(OCCNC)cn3)nc3ccc(Cl)cc23)c1C` [Compound 410] were, in that order, 6100 nM, 5500 nM, 2800 nM and 1400 nM.
For `CCn1ncc(CN(C)C(=O)c2cc(-c3cnc(OCCNC)cn3)nc3ccc(Cl)cc23)c1C` [Compound 413] the same measures were 6400 nM, 21000 nM, 5000 nM and 7400 nM.
`CCn1ncc(CN(C)C(=O)c2nc(-c3ccc(OCCNC)nn3)nc3ccc(Cl)cc23)c1C` [Compound 414]: the IC50 in assay [1] (HB-CLS-2 cells) stood at 20000 nM; at CREBBP (1084-1701), 30000 nM; with 647V cells (setting [2]), 20000 nM; on EP300 (P300(1048-1664)), 44000 nM.
In the case of `CCc1cc(-c2nc(C(=O)N(C)Cc3cnn(CC)c3C)c3cc(Cl)ccc3n2)ccc1NC1CCOCC1` [Compound 415], the 50% inhibitory concentration (IC50) in assay [1] (HB-CLS-2 cells) came to 240 nM; at CREBBP (1084-1701) it was 32 nM; in the assay with 647V cells (setting [2]) it was 240 nM; at EP300 (P300(1048-1664)) it was 23 nM.
Regarding `CCn1ncc(CN(C)C(=O)c2cc(-c3ccc(N(C)CCNC)c(C)n3)nc3ccc(Cl)cc23)c1C` [Compound 417], the IC50 in assay [1] (HB-CLS-2 cells) is 4900 nM; at CREBBP (1084-1701), 22000 nM; with 647V cells (setting [2]), 3100 nM; on EP300 (P300(1048-1664)), 16000 nM.
The like results for `CCn1ncc(CN(C)C(=O)c2nc(-c3cc4c(N)n[nH]c4cc3C)nc3ccc(Cl)cc23)c1C` [Compound 418] were, in that order, 78 nM, 2.5 nM, 62 nM and 2.5 nM.
The like results for `CCn1ncc(CN(C)C(=O)c2nc(-n3nc(N)c4ccc(C)cc43)nc3ccc(Cl)cc23)c1C` [Compound 419] were, in that order, 5800 nM, 10000 nM, 410 nM and 4400 nM.
In the case of `CCn1ncc(CN(C)C(=O)c2cc(-c3ccc(NCCNC)c(C)n3)nc3ccc(COC)cc23)c1C` [Compound 432], the IC50 in assay [1] was found to be 155 nM; at CREBBP (1084-1701) it was 39.6 nM; with 647V cells (Homo sapiens, 647-V), 106 nM; on EP300 (P300(1048-1664)) it was 18.6 nM.
The like results for `CCn1ncc(CN(C)C(=O)c2nc(-c3cc4c(N)nn(C)c4cc3C)nc3ccc(Cl)cc23)c1C` [Compound 433] were, in that order, 20000 nM, 24900 nM, 2220 nM and 12500 nM.
For `CCn1ncc(CN(C)C(=O)c2nc(-c3cnnc(N)c3)nc3ccc(Cl)cc23)c1C` [Compound 434] the same measures were 1720 nM, 3510 nM, 2250 nM and 2700 nM.
In the case of `CCn1ncc(CN(C)C(=O)c2cc(-c3ccc(OCC(O)CNC)c(C)n3)nc3ccc(Cl)cc23)c1C` (centres unmarked) [Compound 435], the 50% inhibitory concentration (IC50) in assay [1] is 163 nM; on CREBBP (1084-1701) it was 36.8 nM; in the assay on 647V cells, 102 nM; on EP300 (P300(1048-1664)), 15.8 nM.
For the molecule `CCn1ncc(CN(C)C(=O)c2nc(-c3cc(C)c4[nH]c(=O)[nH]c4c3)nc3ccc(Cl)cc23)c1C` [Compound 436], the half-inhibitory concentration (IC50) in assay [1] was 130 nM; on CREBBP (1084-1701), 7.21 nM; in the assay with 647V cells (Homo sapiens, 647-V), 94.2 nM; on EP300 (P300(1048-1664)), 4.2 nM.
For `CCn1ncc(CN(C)C(=O)c2cc(-c3cc4n[nH]cc4cn3)nc3ccc(Cl)cc23)c1C` [Compound 437] the same measures were 74.5 nM, 7.82 nM, 119 nM and 5.2 nM.
Take `CCn1ncc(CN(C)C(=O)c2nc(-c3cc(N)c4cn[nH]c4c3)nc3ccc(Cl)cc23)c1C` [Compound 438]: the IC50 was 84.8 nM in assay [1]; 2.5 nM at CREBBP (1084-1701); 78.5 nM in the assay with 647V cells (Homo sapiens, 647-V); 37.8 nM at EP300 (P300(1048-1664)).
The like results for `CCn1ncc(CN(C)C(=O)c2nc(-c3cc(C)c4nc[nH]c4c3)nc3ccc(COC)cc23)c1C` [Compound 439] were, in that order, 919 nM, 170 nM, 752 nM and 628 nM.
The like results for `CCn1ncc(CN(C)C(=O)c2nc(-c3ccc(OCCCNC)c(C(C)C)c3)nc3ccc(Cl)cc23)c1C` [Compound 440] were, in that order, 2050 nM, 88.2 nM, 991 nM and 937 nM.
For `CCn1ncc(CN(C)C(=O)c2nc(-c3ccc(OCCNC)c(Cl)c3)nc3ccc(C(F)F)cc23)c1C` [Compound 441] the same measures were 269 nM, 50.3 nM, 216 nM and 36.7 nM.
Turning to `CCn1ncc(CN(C)C(=O)c2cc(-c3ccc(OCCNC)c(C)n3)nc3ccc(Cl)cc23)c1C` [Compound 442], the concentration for half-maximal inhibition (IC50) in assay [1] worked out at 195 nM; at CREBBP (1084-1701), 76.9 nM; in the assay with 647V cells (Homo sapiens, 647-V), 350 nM; at EP300 (P300(1048-1664)), 414 nM.
For `CCn1ncc(CN(C)C(=O)c2nc(-c3cnnc(C(=O)NC)c3)nc3ccc(Cl)cc23)c1C` [Compound 443] the same measures were 20000 nM, at least 50000 nM, 20000 nM and at least 50000 nM.
For `CCn1ncc(CN(C)C(=O)c2nc(-c3cc(C)cc(NC4CNC4)c3)nc3ccc(Cl)cc23)c1C` [Compound 444] the same measures were 160 nM, 12.3 nM, 58.2 nM and 4.1 nM.
Regarding `CCn1ncc(CN(C)C(=O)c2nc(-c3ccc(OCCCNC)c(C)c3C)nc3ccc(Cl)cc23)c1C` [Compound 446], the IC50 in assay [1] was 112 nM; at CREBBP (1084-1701), 24.8 nM; in the assay on 647V cells (Homo sapiens, 647-V), 34.2 nM; on EP300 (P300(1048-1664)), 13.2 nM.
For `CCn1ncc(CN(C)C(=O)c2cc(-c3cc(C(=O)NC)n(C)n3)nc3ccc(Cl)cc23)c1C` [Compound 447] the same measures were 51.4 nM, 12.1 nM, 68.8 nM and 2 nM.
For `CCn1ncc(CN(C)C(=O)c2nc(-c3nn(C)c(C(=O)NC)c3Cl)nc3ccc(Cl)cc23)c1C` [Compound 448] the same measures were 14300 nM, 48300 nM, 12600 nM and 35500 nM.
Turning to `CCn1ncc(CN(C)C(=O)c2cc(-c3ccc(NCCNC)c(C)n3)nc3ccc(C4CC4)cc23)c1C` [Compound 449], the concentration for half-maximal inhibition (IC50) in assay [1] is 221 nM; at CREBBP (1084-1701) it was 49.8 nM; in the assay on 647V cells (Homo sapiens, 647-V), 135 nM; at EP300 (P300(1048-1664)), 51.1 nM.
The like results for `CCn1ncc(CN(C)C(=O)c2nc(-c3cc(-c4ncon4)n(C)n3)nc3ccc(Cl)cc23)c1C` [Compound 450] were, in that order, 20000 nM, at least 50000 nM, 20000 nM and 24600 nM.

The values above are taken from US20220144812A1, “QUINOLINE DERIVATIVES AND THEIR USE FOR THE TREATMENT OF CANCER” (Epizyme, Inc., priority 2019, published 2022).
